From US11529361B2, “Halogenated salicylanilides for treating Clostridium infections” (UNION therapeutics A/S, priority 2015, dated 2022)
≈ marks a conversion by molar mass, not a printed value. Read-outs that look alike come from different tables or passages of the source.

Experiments:
[1] = test system: C. difficile clinical isolates; assay: MIC determination by microbroth dilution per CLSI guideline (Example 1); assay type: cell-based, Clostridium difficile; details: Clostridioides difficile
[2] = test system: 24 clinical isolate strains of C. difficile; assay: Additional MIC determinations, antibacterial activity by OD600 (Example 3); assay type: cell-based, Clostridium difficile
[3] = test system: Clostridium difficile 7-6011209; assay type: cell-based
mice = details: p.o.; cited from earlier work
rats = details: p.o., cited from earlier work
C. difficile = details: published data (footnote a); cited from earlier work

Compound | MIC ([2]; strain 7-5085357 (ST028)) | MIC ([2]; strain 7-6011209 (ST002)) | MIC ([2]; strain 7-6778909 (ST016)) | MIC ([2]; strain 7-6854508 (ST013)) | MIC ([2]; strain 7-6870430 (ST001)) | MIC ([2]; strain 7-7104022 (ST103)) | MIC ([2]; strain 7-7116411 (ST005)) | MIC ([2]; strain 7-7124449 (ST009)) | MIC ([2]; strain 7-7149204 (ST006)) | MIC ([2]; strain 7-7150288 (ST003)) | MIC ([2]; strain 7-7150318 (ST059)) | MIC ([2]; strain 7-7150628 (ST034)) | MIC ([2]; strain 7-7150997 (ST049)) | MIC ([2]; strain 7-7154992 (ST139)) | MIC ([2]; strain 7-7200552 (ST017)) | MIC ([2]; strain 12055) | MIC ([2]; strain 12060) | MIC ([2]; strain 12061) | MIC ([2]; strain 12063) | MIC ([2]; strain 12064) | also measured
O=C(Nc1ccc(Oc2ccc(Cl)cc2)c(Cl)c1)c1cc(I)cc(I)c1O [Rafoxanide] | 0.016 µg/mL (≈ 0.0256 µM) | < 0.008 µg/mL | < 0.008 µg/mL | < 0.008 µg/mL | < 0.008 µg/mL | < 0.008 µg/mL | 0.031 µg/mL (≈ 0.0495 µM) | 0.031 µg/mL (≈ 0.0495 µM) | < 0.008 µg/mL | < 0.008 µg/mL | < 0.008 µg/mL | 0.31 µg/mL (≈ 0.495 µM) | < 0.008 µg/mL | 0.016 µg/mL (≈ 0.0256 µM) | 0.063 µg/mL (≈ 0.101 µM) | < 0.008 µg/mL | 0.031 µg/mL (≈ 0.0495 µM) | 0.016 µg/mL (≈ 0.0256 µM) | < 0.008 µg/mL | < 0.008 µg/mL | MIC ([1]; read-out: C. difficile Strain 7-6011209 MIC): < 0.08 µg/mL; MIC ([1]; read-out: C. difficile Strain 12055 MIC): < 0.08 µg/mL; MIC ([2]; strain 12062): 0.016 µg/mL (≈ 0.0256 µM); MIC ([2]; strain 12065): 0.016 µg/mL (≈ 0.0256 µM); MIC ([2]; strain 12066): 0.063 µg/mL (≈ 0.101 µM); formation of heat-resistant spores over time [3]: suppressed formation of spores throughout the 96 hour study period; LD50 (mice): 232 to 300 mg/kg; LD50, median (rats; median over studies): > 1490 mg/kg
Cc1ncc([N+](=O)[O-])n1CCO [Metronidazole] | 1 µg/mL (≈ 5.84 µM) | 0.031 µg/mL (≈ 0.181 µM) | 0.25 µg/mL (≈ 1.46 µM) | 1 µg/mL (≈ 5.84 µM) | 1 µg/mL (≈ 5.84 µM) | > 8 µg/mL | > 16 µg/mL | 2 µg/mL (≈ 11.7 µM) | 0.5 µg/mL (≈ 2.92 µM) | 0.063 µg/mL (≈ 0.368 µM) | 1 µg/mL (≈ 5.84 µM) | 0.5 µg/mL (≈ 2.92 µM) | 0.031 µg/mL (≈ 0.181 µM) | 1 µg/mL (≈ 5.84 µM) | 2 µg/mL (≈ 11.7 µM) | 1 µg/mL (≈ 5.84 µM) | 1 µg/mL (≈ 5.84 µM) | 1 µg/mL (≈ 5.84 µM) | 0.25 µg/mL (≈ 1.46 µM) | 0.031 µg/mL (≈ 0.181 µM) | MIC ([2]; strain 12065): 1 µg/mL (≈ 5.84 µM); MIC ([2]; strain 12066): 1 µg/mL (≈ 5.84 µM); Highest MIC observed (C. difficile): >32^a μg/mL; MIC90 (C. difficile): 1^a μg/mL
O=C(Nc1cc(Cl)cc(Cl)c1O)c1c(O)c(Cl)cc(Cl)c1Cl [Oxyclozanide] | 0.016 µg/mL (≈ 0.0399 µM) | < 0.008 µg/mL | < 0.008 µg/mL | < 0.008 µg/mL | < 0.008 µg/mL | < 0.008 µg/mL | 0.125 µg/mL (≈ 0.311 µM) | 0.031 µg/mL (≈ 0.0772 µM) | < 0.008 µg/mL | < 0.008 µg/mL | 0.016 µg/mL (≈ 0.0399 µM) | 0.31 µg/mL (≈ 0.772 µM) | < 0.008 µg/mL | < 0.008 µg/mL | 0.25 µg/mL (≈ 0.623 µM) | 0.016 µg/mL (≈ 0.0399 µM) | 0.031 µg/mL (≈ 0.0772 µM) | 0.016 µg/mL (≈ 0.0399 µM) | 0.016 µg/mL (≈ 0.0399 µM) | < 0.008 µg/mL | MIC ([1]; Table 3, strain 7-6011209, read-out: C. difficile Strain 7-6011209 MIC): 0.25 µg/mL (≈ 0.623 µM); MIC ([1]; Table 3, strain 12055, read-out: C. difficile Strain 12055 MIC): 0.25 µg/mL (≈ 0.623 µM); MIC ([2]; strain 12062): < 0.008 µg/mL; MIC ([2]; strain 12065): 0.031 µg/mL (≈ 0.0772 µM); MIC ([2]; strain 12066): 0.125 µg/mL (≈ 0.311 µM); LD50 (rats): 980 to 3519 mg/kg
